Test results: patent US11001590B2, “Pyrazolopyrimidine derivatives” (BAYER ANIMAL HEALTH GMBH, priority 2016, dated 2021)

What was measured:
[1] = system: Dirofilaria immitis microfilariae; test: In vitro assay 3: Dirofilaria immitis microfilariae (DIROIM L1), motility; details: 72 h, reduction of motility vs negative control, 72 h incubation
Cooperia curticei = test: In vitro assay 5: Cooperia curticei (COOPCU), larval mortality; details: 120 h, read-out: activity (percentage of larval mortality)
Description: In Vitro Assay 5: Cooperia curticei (COOPCU)
Solvent: Dimethyl Sulfoxide
Approximately 40 nematode larvae (Cooperia curticei) are transferred into a test tube containing the compound solution.
After 5 days percentage of larval mortality is recorded. 100% efficacy means all larvae are killed; 0% efficacy means no larvae are killed.

[2] = system: Litomosoides sigmodontis third-stage larvae; test: In vitro assay 7: Litomosoides sigmodontis L3 (LTMOSI), motility; details: 72 h, reduction of motility vs negative control, 72 h incubation
Description: In Vitro Assay 7: Litomosoides Siqmodontis L3 (LTMOSI)
10 Litomosoides sigmodontis third-stage larvae, which were freshly isolated from the pleural cavity of an infected rodent, were added to wells of a microtitre plate containing a nutrient medium and the test compound in DMSO. Compounds were tested in concentration-response assay in duplicate. Larvae exposed to DMSO and no test compounds were used as negative controls. Larvae were evaluated after 72 h of incubation with the compound. Efficacy was determined as the reduction of motility in comparison to the negative control. Based on the evaluation of a wide concentration range, concentration-response curves as well as ECso-values were calculated.

[3] = log P by HPLC on reversed phase columns (Method L0; [a] acidic, [b] neutral range)
Description: Calibration was done with straight-chain alkan-2-ones (with 3 to 16 carbon atoms) with known log P values (measurement of log P values using retention times with linear interpolation between successive alkanones). Lambda-max-values were determined using UV-spectra from 200 nm to 400 nm and the peak values of the chromatographic signals.

C. elegans Slo-1a = C. elegans Slo-1a (Caenorhabditis elegans, UniProt Q95V25); test: In vitro assay 1: C. elegans Slo-1a, action at a recombinant C. elegans CHO cell line (membrane potential measurement)
[4] = system: Nippostrongylus brasiliensis; test: In vitro assay 2: Nippostrongylus brasiliensis (NIPOBR), acetylcholine esterase readout; details: adult worms, read-out: activity (reduction of AChE compared to negative control); for inhibition at 10 µg/mL: 10 μg/ml (10 ppm); for inhibition at 1 µg/mL: 1 μg/ml (1 ppm)
Description: In Vitro Assay 2: Nippostronqylus Brasiliensis (NIPOBR)
Adult Nippostrongylus brasiliensis were washed with saline buffer containing 100 U/ml penicillin, 0.1 mg/ml streptomycin and 2.5 μg/ml amphotericin B. Test compounds were dissolved in DMSO and worms were incubated in medium in a final concentration of 10 μg/ml (10 ppm) respectively 1 μg/ml (1 ppm). An aliquot of the medium was used to determine the acetylcholine esterase activity in comparison to a negative control. The principle of measuring acetylcholine esterase as readout for anthelmintic activity was described in Rapson et al (1986) and Rapson et al (1987).

[5] = system: Dirofilaria immitis third-stage larvae; test: In vitro assay 4: Dirofilaria immitis (DIROIM L4), motility of larvae; details: 72 h
Haemonchus contortus = test: In vitro assay 6: Haemonchus contortus (HAEMCO), larval mortality
Description: In Vitro Assay 6: Haemonchus contortus (HAEMCO)
Solvent: dimethyl sulfoxide
Approximately 40 larvae of the red stomach worm (Haemonchus contortus) are transferred into a test tube containing compound solution.
After 5 days the percentage of larval mortality is recorded. 100% efficacy means all larvae are killed, 0% efficacy means no larvae are killed.

C. elegans Slo-1a, sequence (Q95V25 whole entry): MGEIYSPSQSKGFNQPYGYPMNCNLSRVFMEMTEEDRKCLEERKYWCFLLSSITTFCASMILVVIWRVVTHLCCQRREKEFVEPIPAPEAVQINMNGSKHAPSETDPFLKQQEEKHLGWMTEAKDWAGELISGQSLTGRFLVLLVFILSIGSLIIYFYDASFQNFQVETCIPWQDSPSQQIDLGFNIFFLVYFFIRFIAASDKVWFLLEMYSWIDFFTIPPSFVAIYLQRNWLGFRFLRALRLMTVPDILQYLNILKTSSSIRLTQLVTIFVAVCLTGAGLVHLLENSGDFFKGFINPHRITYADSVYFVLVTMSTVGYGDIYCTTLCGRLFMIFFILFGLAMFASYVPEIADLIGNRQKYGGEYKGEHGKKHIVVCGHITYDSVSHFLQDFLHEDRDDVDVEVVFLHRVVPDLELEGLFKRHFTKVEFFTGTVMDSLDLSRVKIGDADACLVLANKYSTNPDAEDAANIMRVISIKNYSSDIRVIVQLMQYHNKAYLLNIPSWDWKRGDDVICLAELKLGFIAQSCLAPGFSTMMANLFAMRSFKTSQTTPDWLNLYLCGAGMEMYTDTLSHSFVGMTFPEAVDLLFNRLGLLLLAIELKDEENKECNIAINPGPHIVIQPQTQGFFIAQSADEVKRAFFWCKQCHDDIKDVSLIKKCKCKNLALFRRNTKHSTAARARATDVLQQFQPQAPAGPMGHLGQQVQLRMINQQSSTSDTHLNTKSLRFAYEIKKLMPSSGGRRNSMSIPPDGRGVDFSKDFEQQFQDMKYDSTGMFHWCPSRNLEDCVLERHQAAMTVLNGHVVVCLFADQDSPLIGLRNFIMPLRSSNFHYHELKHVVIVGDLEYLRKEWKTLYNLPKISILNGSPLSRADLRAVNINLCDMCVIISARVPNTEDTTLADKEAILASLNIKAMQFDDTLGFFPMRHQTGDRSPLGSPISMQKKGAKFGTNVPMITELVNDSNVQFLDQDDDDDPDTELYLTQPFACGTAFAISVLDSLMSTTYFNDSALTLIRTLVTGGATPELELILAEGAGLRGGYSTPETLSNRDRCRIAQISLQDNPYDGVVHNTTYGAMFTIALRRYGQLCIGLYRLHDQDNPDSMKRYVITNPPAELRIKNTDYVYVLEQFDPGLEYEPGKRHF

Structure (SMILES) | EC50 [1] | mortality at 20 ppm (Cooperia curticei) | EC50 [2] | chromatographic logP [3] | EC50 (C. elegans Slo-1a) | inhibition at 10 µg/mL [4] | EC50 [5] | inhibition at 1 µg/mL [4] | mortality at 4 ppm (Haemonchus contortus; Haemonchus contortus, 120 h, read-out: activity (percentage of larval mortality)) | activity (percentage of larval mortality) (Haemonchus contortus; application rate 20 ppm, after 5 days) | pE50 (C. elegans Slo-1a; CHO cells expressing C. elegans Slo-1a, voltage sensitive dye, FLIPR Tetra, negative decadic logarithm of EC50)
Cc1nn2c(C(C)C)c(C(=O)N[C@H]3CCOc4ccccc43)cnc2c1-c1cccc(C(F)(F)F)c1 [Example 6] | < 1 µg/mL | 80% | < 1 µg/mL | 5.03 | 12.6 nM |  |  |  |  |  | 
Cc1nn2c(C(C)C)c(C(=O)N[C@H]3CCOc4ccccc43)cnc2c1-c1cccc(Cl)c1Cl [Example 170] | < 0.1 µg/mL |  | < 0.1 µg/mL | 4.85 | 2 nM | > 80% | < 0.1 µg/mL |  |  |  | 
COc1cccc(-c2c(C)nn3c(C(C)C)c(C(=O)N[C@H]4CCOc5ccccc54)cnc23)c1F [Example 184] | < 0.1 µg/mL |  | < 0.1 µg/mL | 2.84 | 3.16 nM | > 80% | < 0.1 µg/mL |  |  |  | 
Cc1nn2c(C(C)C)c(C(=O)N[C@H]3CCOc4ccccc43)cnc2c1-c1ccc(F)c(Cl)c1 [Example 186] | < 0.1 µg/mL |  | < 0.1 µg/mL | 5.01 | 15.8 nM | > 80% | < 0.1 µg/mL |  |  |  | 
Cc1nn2c(C(C)C)c(C(=O)N[C@H]3CCOc4ccccc43)cnc2c1-c1cccc(Cl)c1F [Example 189] | < 0.1 µg/mL |  | < 0.1 µg/mL | 4.72 | 1.26 nM | > 80% | < 0.1 µg/mL |  |  |  | 
Cc1nn2c(C(C)C)c(C(=O)N[C@H]3CCOc4ccccc43)cnc2c1-c1cc(Cl)c(F)c(Cl)c1 [Example 194] | < 0.1 µg/mL |  | < 0.1 µg/mL | 5.65 | 12.6 nM | > 80% | < 0.1 µg/mL | > 80% |  |  | 
Cc1nn2c(C(C)C)c(C(=O)N[C@H]3CCOc4ccccc43)cnc2c1-c1ncc(Cl)cc1Cl [Example 208] | < 0.1 µg/mL |  | < 0.1 µg/mL | 4.27 | 1.58 nM | > 80% | < 0.1 µg/mL | > 80% |  |  | 
Cc1nn2c(C(C)C)c(C(=O)N[C@H]3CCOc4ccccc43)cnc2c1-c1ccc(F)c(Cl)c1F [Example 213] | < 0.1 µg/mL |  | < 0.1 µg/mL | 4.8 | 1.58 nM | > 80% | < 0.1 µg/mL |  |  |  | 
COc1ccc(F)c(-c2c(C)nn3c(C(C)C)c(C(=O)N[C@H]4CCOc5ccccc54)cnc23)c1F [Example 232] | < 1 µg/mL | 80% | < 0.1 µg/mL | 4.04 | 5.01 nM | > 80% | < 0.1 µg/mL |  |  |  | 
Cc1nn2c(C(C)C)c(C(=O)N[C@H]3CCOc4ccccc43)cnc2c1-c1c(F)cc(F)cc1F [Example 236] | < 1 µg/mL |  | < 0.1 µg/mL | 4.3 | 2 nM | > 80% | < 0.1 µg/mL | > 80% |  |  | 
Cc1nn2c(C(C)C)c(C(=O)N[C@H]3CCOc4ccccc43)cnc2c1-c1cc(Cl)cc(C(F)(F)F)c1 [Example 240] | < 1 µg/mL | 90% |  | 5.65 | 5.01 nM | > 80% |  | > 80% |  |  | 
COc1cc(-c2c(C)nn3c(C(C)C)c(C(=O)N[C@H]4CCOc5ccccc54)cnc23)cc(F)c1F [Example 241] | < 1 µg/mL |  | < 0.1 µg/mL | 4.6 | 6.31 nM | > 80% | < 0.1 µg/mL | > 80% |  |  | 
COc1cc(-c2c(C)nn3c(C(C)C)c(C(=O)N[C@H]4CCOc5ccccc54)cnc23)ccc1F [Example 244] | < 1 µg/mL | 90% | < 0.1 µg/mL | 4.32 | 6.31 nM | > 80% | < 0.1 µg/mL | > 80% |  |  | 
Cc1nn2c(C(C)C)c(C(=O)N[C@H]3CCOc4ccccc43)cnc2c1-c1c(F)cc(Cl)cc1F [Example 246] | < 0.1 µg/mL |  | < 0.1 µg/mL | 4.82 | 6.31 nM | > 80% | < 0.1 µg/mL | > 80% |  |  | 
Cc1nn2c(C(C)C)c(C(=O)N[C@H]3CCOc4ccccc43)cnc2c1-c1c(F)ccc(F)c1F [Example 253] | < 0.1 µg/mL |  | < 0.1 µg/mL | 4.32 | 1.26 nM | > 80% | < 0.1 µg/mL |  | 80% |  | 
Cc1nn2c(C(C)C)c(C(=O)N[C@H]3CCOc4ccccc43)cnc2c1-c1c(Cl)ccc(F)c1F [Example 258] | < 1 µg/mL |  | < 0.1 µg/mL | 4.46 | 1.58 nM | > 80% | < 0.1 µg/mL | > 80% |  |  | 
Cc1nn2c(C(C)C)c(C(=O)N[C@H]3CCc4ccccc43)cnc2c1-c1cc(Cl)cc(Cl)c1F [Example 261] | < 0.1 µg/mL | 80% |  | 5.65 | 1.58 nM | > 80% | < 0.1 µg/mL | > 80% |  |  | 
Cc1nn2c(C(C)C)c(C(=O)N[C@H]3CCOc4ccccc43)cnc2c1-c1cc(Cl)cc(Cl)c1F [Example 262] | < 0.1 µg/mL | 90% | < 0.1 µg/mL | 5.36 | 0.501 nM | > 80% | < 0.1 µg/mL | > 80% |  |  | 
Cc1nn2c(C(C)C)c(C(=O)N[C@H]3CCc4ccccc43)cnc2c1-c1cccc(N(C)C)c1 [Example 299] | < 0.1 µg/mL | 80% |  | 3.9 | 15.8 nM |  |  |  |  |  | 
Cc1nn2c(C(C)C)c(C(=O)N[C@H]3CCc4ccccc43)cnc2c1-c1cc(Cl)cc(C(F)(F)F)c1 [Example 317] | < 1 µg/mL |  | < 0.1 µg/mL | 6.07 | 15.8 nM | > 80% | < 0.1 µg/mL |  |  |  | 
COc1cc(Cl)cc(-c2c(C)nn3c(C(C)C)c(C(=O)N[C@H]4CCOc5ccccc54)cnc23)c1 [Example 403] | < 0.1 µg/mL |  | < 0.1 µg/mL | 4.96 | 158 nM | > 80% | < 0.1 µg/mL |  |  |  | 
Cc1nn2c(C3CC3)c(C(=O)N[C@H]3CCc4ccccc43)cnc2c1-c1c(F)cccc1Cl [Example 442] | < 0.1 µg/mL |  | < 0.1 µg/mL | 3.89 | 2 nM | > 80% | < 0.1 µg/mL |  |  |  | 
Cc1nn2c(C3CC3)c(C(=O)N[C@H]3CCOc4ccccc43)cnc2c1-c1cccc(N(C)C)c1 [Example 453] | < 1 µg/mL | 80% |  | 2.72 | 2.51 nM | > 80% |  |  |  |  | 
Cc1nn2c(C3CC3)c(C(=O)N[C@H]3CCOc4ccccc43)cnc2c1-c1c(Cl)cccc1Cl [Example 467] | < 0.1 µg/mL |  | < 0.1 µg/mL | 3.88 | 0.398 nM | > 80% | < 0.1 µg/mL |  |  |  | 
Cc1nn2c(C3CC3)c(C(=O)N[C@H]3CCOc4ccccc43)cnc2c1-c1cccc(Cl)c1Cl [Example 473] | < 0.1 µg/mL | 90% | < 0.1 µg/mL | 4.07 | 0.501 nM | > 80% | < 0.1 µg/mL | > 80% |  |  | 
Cc1nn2c(C3CC3)c(C(=O)N[C@H]3CCOc4ccccc43)cnc2c1-c1cccc2c1CCN2C [Example 474] | < 1 µg/mL | 90% | < 0.1 µg/mL | 3.25 | 6.31 nM | > 80% | < 0.1 µg/mL |  |  |  | 
Cc1nn2c(C3CC3)c(C(=O)N[C@H]3CCOc4ccccc43)cnc2c1-c1ccc(F)cc1Cl [Example 475] | < 0.1 µg/mL |  | < 0.1 µg/mL | 3.79 | 2 nM |  | < 0.1 µg/mL | > 80% |  |  | 
CCc1c(C(=O)N[C@H]2CCOc3ccccc32)cnc2c(-c3c(F)ccc(Cl)c3F)c(C)nn12 [Example 489] |  |  |  |  |  |  |  |  |  | 90% | 8.8
COc1c(F)ccc(-c2c(C)nn3c(N4CCOCC4)c(C(=O)N[C@H]4CCOc5ccccc54)cnc23)c1F [Example 533] | < 0.1 µg/mL |  | < 0.1 µg/mL | 4.46 | 1.26 nM |  | < 0.1 µg/mL | > 80% |  |  | 
Cc1nn2c(C3CC3)c(C(=O)N[C@H]3CCOc4ccccc43)cnc2c1-c1cc(Cl)cc(Cl)c1Cl [Example 538] | < 0.1 µg/mL |  | < 0.1 µg/mL | 4.8 | 0.316 nM |  | < 0.1 µg/mL | > 80% |  |  | 
